Literature values as cited in patent publication US7442834B2, “Process suitable for industrial scale production of gabapentin” (priority 2006, dated 2008).

What was measured:
[1] = in vivo
[2] = from U.S. Pat. No. 6,518,456

Row | Structure (SMILES) | LD50 (cytotoxicity) [1] [mg/kg] | isoelectric point (pH) [2]
1 | O=C1CC2(CCCCC2)CN1 [IV, 3,3-pentamethylenebutyrolactam] | 300 | 
2 | NCC1(CC(=O)O)CCCCC1 [gabapentin (I), 1-(aminomethyl)-1-cyclohexaneacetic acid] | > 8000 | 7.1-7.2
